Measurements: ChEMBL document CHEMBL6178010, “XPO1-Targeting Selective Inhibitors of Transcriptional Activation Suppress Graft-versus-Host Disease” (J Med Chem, 2025)
Activity calls are given as the source filed them. The rule behind the calls is not given here.

Tests used:
[1] = target: T1, Exportin-1 (Homo sapiens, UniProt O14980); experiment: Inhibition of XPO1 in PMA/ionomycin-activated human Jurkat cells expressing IL-2 promoter reporter gene assessed as suppression of IL-2 transcriptional activity incubated for 6 hrs by Bright-Glo Luciferase assay; type: cell-based
[2] = test system: Jurkat; experiment: Cytotoxicity against human Jurkat cells assessed as suppression of cell viability incubated for 24 hrs by CellTiter-Glo assay; type: functional, cell-based
[3] = test system: XPO1; experiment: Selectivity ratio of EC50 for cytotoxicity against human Jurkat cells assessed as suppression of cell viability to EC50 for inhibition of XPO1 in PMA/ionomycin-activated human Jurkat cells expressing IL-2 promoter reporter gene assessed as suppression of IL-2 transcriptional activity; type: toxicity, cell-based; conditions: read-out: Ratio EC50
[4] = Metabolic stability in mouse liver microsome assessed as half life; type: ADME; conditions: liver microsomes
[5] = Metabolic stability in mouse liver microsome assessed as intrinsic clearance; type: ADME; conditions: liver microsomes, read-out: CLH
[6] = test system: Jurkat; experiment: Downregulation of IL-2 mRNA level in PMA/ionomycin-activated human Jurkat cells expressing XPO1 C528S mutant at 10 nM incubated for 6 hrs by RT-qPCR analysis; type: functional, cell-based
[7] = test system: Jurkat; experiment: Cytotoxicity against human Jurkat cells expressing XPO1 C528S mutant assessed as suppression of cell viability up to 100 nM incubated for 24 hrs by CellTiter-Glo assay; type: functional, cell-based
[8] = target: T1, Exportin-1; experiment: Inhibition of selinexor-alkyne binding to XPO1 at Cys528 in human Jurkat cells up to 10 nM pretreated for 1 hr followed by addition of selinexor-alkyne measured after 1 hr by In-gel fluorescence analysis; type: cell-based; conditions: time 2.0 hrs
[9] = Toxicity in mouse assessed as neutropenia at 10 mg/kg, ip administered daily for 5 days by CBC analysis; type: organism-based; conditions: in vivo, 120 h, time 5 day
[10] = Toxicity in mouse assessed as leukopenia at 10 mg/kg, ip administered daily for 5 days by CBC analysis; type: organism-based; conditions: in vivo, 120 h, time 5 day
[11] = test system: Mus musculus; experiment: Anti-inflammatory activity in irradiated BALB/c mouse transplanted with bone marrow/splenic T-cells from C57BL/6 mouse assessed as reduction in animal lethality at 10 mg/kg, ip administered daily measured for 8 days; type: functional, organism-based; conditions: time 8.0 day
[12] = test system: Jurkat; experiment: Downregulation of IL-2 mRNA level in PMA/ionomycin-activated human Jurkat cells expressing XPO1 C528S mutant at 100 nM incubated for 6 hrs by RT-qPCR analysis; type: functional, cell-based
[13] = test system: Jurkat; experiment: Cytotoxicity against human Jurkat cells expressing XPO1 C528S mutant assessed as suppression of cell viability up to 10000 nM incubated for 24 hrs by CellTiter-Glo assay; type: functional, cell-based
[14] = target: T1, Exportin-1; experiment: Covalent binding affinity to XPO1 in human Jurkat cells at 4 to 1000 nM by In-gel fluorescence analysis; type: cell-based; conditions: dose 4-1000 nM
[15] = target: Exportin-1 (Mus musculus) (UniProt Q6P5F9); experiment: In vivo binding affinity to XPO1 in mouse spleen at 1 to 9 mg/kg, ip qd administered for 5 days by Western blot analysis; type: functional, organism-based; conditions: dose 1-9 mg/kg, time 5.0 day
[16] = target: Exportin-1 (Mus musculus) (UniProt Q6P5F9); experiment: In vivo binding affinity to XPO1 in mouse liver at 1 to 9 mg/kg, ip qd administered for 5 days by Western blot analysis; type: functional, organism-based; conditions: dose 1-9 mg/kg, time 5.0 day
[17] = target: Exportin-1 (Mus musculus) (UniProt Q6P5F9); experiment: In vivo binding affinity to XPO1 in mouse kidney at 1 to 9 mg/kg, ip qd administered for 5 days by Western blot analysis; type: functional, organism-based; conditions: dose 1-9 mg/kg, time 5.0 day
[18] = test system: Mus musculus; experiment: Suppression of T-cell activation in irradiated BALB/c mouse transplanted with bone marrow/splenic T-cells from C57BL/6 mouse assessed as downregulation of IFNG in host spleen at 10 mg/kg, ip administered daily for 7 days by RT-qPCR analysis; type: functional, organism-based; conditions: time 7.0 day
[19] = test system: Mus musculus; experiment: Suppression of T-cell activation in irradiated BALB/c mouse transplanted with bone marrow/splenic T-cells from C57BL/6 mouse assessed as downregulation of CSF2 in host spleen at 10 mg/kg, ip administered daily for 7 days by RT-qPCR analysis; type: functional, organism-based; conditions: time 7.0 day
[20] = test system: Mus musculus; experiment: Anti-inflammatory activity in irradiated BALB/c mouse transplanted with bone marrow/splenic T-cells from C57BL/6 mouse assessed as suppression of CD3 positive T-cell infiltration in host liver at 10 mg/kg, ip qd administered daily for 7 days by IHC analysis; type: functional, organism-based; conditions: time 7.0 day
[21] = Drug exposure in mouse administered intraperitoneally; type: ADME; conditions: in vivo, ip
[22] = target: T1, Exportin-1; experiment: Inhibition of selinexor-alkyne binding to XPO1 at Cys528 in human Jurkat cells up to 300 nM pretreated for 1 hr followed by addition of selinexor-alkyne measured after 1 hr by In-gel fluorescence analysis; type: cell-based; conditions: time 2.0 hrs
[23] = test system: Jurkat; experiment: Cytotoxicity against human Jurkat cells expressing XPO1 C528S mutant assessed as suppression of cell viability up to 1000 nM incubated for 24 hrs by CellTiter-Glo assay; type: functional, cell-based
[24] = target: T1, Exportin-1; experiment: Covalent binding affinity to XPO1 in human Jurkat cells at 0.6 to 123 nM by In-gel fluorescence analysis; type: cell-based; conditions: dose 0.6-123 nM
[25] = target: Exportin-1 (Mus musculus) (UniProt Q6P5F9); experiment: In vivo binding affinity to XPO1 in mouse spleen at 10 mg/kg, ip qd administered for 5 days by Western blot analysis; type: functional, organism-based; conditions: time 5.0 day
[26] = target: Exportin-1 (Mus musculus) (UniProt Q6P5F9); experiment: In vivo binding affinity to XPO1 in mouse liver at 10 mg/kg, ip qd administered for 5 days by Western blot analysis; type: functional, organism-based; conditions: time 5.0 day
[27] = target: Exportin-1 (Mus musculus) (UniProt Q6P5F9); experiment: In vivo binding affinity to XPO1 in mouse kidney at 10 mg/kg, ip qd administered for 5 days by Western blot analysis; type: functional, organism-based; conditions: time 5.0 day

T1 sequence (O14980 whole entry): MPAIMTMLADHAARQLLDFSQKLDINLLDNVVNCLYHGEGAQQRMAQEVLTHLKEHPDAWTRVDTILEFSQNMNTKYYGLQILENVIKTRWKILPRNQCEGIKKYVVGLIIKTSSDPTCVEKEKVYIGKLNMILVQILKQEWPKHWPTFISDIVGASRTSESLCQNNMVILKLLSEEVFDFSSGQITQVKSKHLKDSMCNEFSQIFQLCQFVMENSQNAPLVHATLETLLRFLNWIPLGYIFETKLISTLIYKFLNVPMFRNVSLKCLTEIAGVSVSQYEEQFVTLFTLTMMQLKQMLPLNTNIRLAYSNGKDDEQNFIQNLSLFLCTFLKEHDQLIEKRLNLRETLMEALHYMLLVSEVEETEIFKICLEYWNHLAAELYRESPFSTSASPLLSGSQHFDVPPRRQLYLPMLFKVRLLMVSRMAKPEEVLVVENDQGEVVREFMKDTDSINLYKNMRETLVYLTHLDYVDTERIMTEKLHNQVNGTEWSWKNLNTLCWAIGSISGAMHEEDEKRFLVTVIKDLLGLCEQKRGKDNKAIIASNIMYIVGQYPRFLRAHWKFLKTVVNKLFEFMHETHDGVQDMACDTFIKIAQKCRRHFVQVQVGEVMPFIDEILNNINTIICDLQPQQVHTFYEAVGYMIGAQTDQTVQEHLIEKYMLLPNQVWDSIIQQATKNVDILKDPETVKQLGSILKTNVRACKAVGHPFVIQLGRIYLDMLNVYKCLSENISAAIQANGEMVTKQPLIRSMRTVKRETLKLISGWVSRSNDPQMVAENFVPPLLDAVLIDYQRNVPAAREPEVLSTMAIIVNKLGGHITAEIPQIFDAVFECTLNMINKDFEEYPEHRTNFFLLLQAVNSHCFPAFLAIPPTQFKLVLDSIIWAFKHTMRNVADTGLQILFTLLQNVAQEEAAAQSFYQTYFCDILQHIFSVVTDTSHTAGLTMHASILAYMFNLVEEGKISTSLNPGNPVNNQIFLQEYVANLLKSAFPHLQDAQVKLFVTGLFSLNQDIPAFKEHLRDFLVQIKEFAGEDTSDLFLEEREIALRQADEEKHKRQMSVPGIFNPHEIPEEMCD
Chain of Exportin-1 (Mus musculus) (Q6P5F9 whole entry): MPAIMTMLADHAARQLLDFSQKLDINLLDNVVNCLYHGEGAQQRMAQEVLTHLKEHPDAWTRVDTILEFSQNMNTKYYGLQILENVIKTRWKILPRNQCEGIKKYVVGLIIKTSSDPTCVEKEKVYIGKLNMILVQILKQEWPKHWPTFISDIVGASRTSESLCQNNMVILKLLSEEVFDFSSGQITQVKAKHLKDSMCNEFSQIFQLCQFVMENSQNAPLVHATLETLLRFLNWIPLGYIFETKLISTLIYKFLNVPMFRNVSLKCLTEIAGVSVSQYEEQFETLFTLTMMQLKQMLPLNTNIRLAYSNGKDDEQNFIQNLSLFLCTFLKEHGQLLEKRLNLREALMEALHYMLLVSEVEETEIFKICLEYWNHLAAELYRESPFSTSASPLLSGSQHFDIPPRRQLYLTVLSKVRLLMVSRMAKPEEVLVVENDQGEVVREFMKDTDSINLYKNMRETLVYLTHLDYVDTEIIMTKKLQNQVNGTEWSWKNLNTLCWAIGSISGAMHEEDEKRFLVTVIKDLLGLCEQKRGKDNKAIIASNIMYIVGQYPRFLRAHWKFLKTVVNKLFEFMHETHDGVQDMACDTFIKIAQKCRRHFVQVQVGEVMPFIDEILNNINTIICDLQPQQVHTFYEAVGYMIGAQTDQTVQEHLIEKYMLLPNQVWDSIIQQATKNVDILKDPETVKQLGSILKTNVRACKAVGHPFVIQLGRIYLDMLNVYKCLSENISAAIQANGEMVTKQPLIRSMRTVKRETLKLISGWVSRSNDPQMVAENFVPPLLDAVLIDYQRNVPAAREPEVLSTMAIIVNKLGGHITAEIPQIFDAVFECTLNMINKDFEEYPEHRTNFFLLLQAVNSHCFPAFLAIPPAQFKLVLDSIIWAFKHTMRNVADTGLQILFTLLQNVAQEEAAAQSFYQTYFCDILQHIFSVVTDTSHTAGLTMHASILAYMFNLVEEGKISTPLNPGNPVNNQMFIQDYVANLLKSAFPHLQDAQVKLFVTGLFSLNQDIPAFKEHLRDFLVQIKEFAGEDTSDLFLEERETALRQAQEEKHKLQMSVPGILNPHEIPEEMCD

EC50 [1] | half-life [4] | microsomal CLint [5] | Structure (SMILES) | EC50 [2] | selectivity ratio [3] | further results
156 nM | 19.9 min | 70 µL/min/mg | CC1=CC(=O)N(Nc2ncc(C(F)(F)F)c(Cl)n2)C1=O | 338 nM | 2.2 | –
9 nM | 11.4 min | 121 µL/min/mg | CC1=CC(=O)N(Nc2nc(Cl)c(C(F)(F)F)cc2F)C1=O | 30 nM | 3.3 | –
29.1 nM | 8.5 min | 163 µL/min/mg | CC1=CC(=O)N(N(C)c2nc(N(C)CC3CC3)nn3cccc23)C1=O | 187 nM | 6.4 | –
1 nM | < 10 min | > 139 µL/min/mg | CC1=CC(=O)N(Nc2ccc(C(F)(F)F)c(N3CC4CC4C3)n2)C1=O (stereo not drawn) | 30.4 nM | 30.4 | Activity [6]: inactive; Activity [7]: Active; inhibition [8]: Active
– | – | – | O=C(/C=C\n1cnc(-c2cc(C(F)(F)F)cc(C(F)(F)F)c2)n1)NNc1cnccn1 [SELINEXOR] | – | – | Activity [9]: Toxic; Activity [10]: Toxic; Activity [11]: inactive
– | 26.1 min | 53 µL/min/mg | CC1=CC(=O)N(Nc2ccc(C(F)(F)F)c(Cl)n2)C1=O | – | – | –
8.3 nM | – | – | CC1=CC(=O)N(Nc2ccc(C(F)(F)F)c(N(C)C)n2)C1=O | 696 nM | 83.9 | Activity [12]: inactive; Activity [13]: Active; inhibition [8]: Active
2 nM | < 10 min | > 139 µL/min/mg | CC1=CC(=O)N(Nc2ccc(C(F)(F)F)c(N3CCCC3)n2)C1=O | 92 nM | 46 | –
11 nM | < 10 min | > 139 µL/min/mg | CC1=CC(=O)N(Nc2ccc(C(F)(F)F)c(N3CCC3)n2)C1=O | 434 nM | 39.5 | –
66.2 nM | 75 min | 19 µL/min/mg | CC1=CC(=O)N(Nc2nc(-c3ccccc3)nn3cccc23)C1=O | 410 nM | 6.2 | –
– | < 10 min | > 139 µL/min/mg | O=C(Nc1cc(C(F)(F)F)cc(C(F)(F)F)c1)c1cnc(Cl)nc1C(F)(F)F | – | – | –
– | – | – | C#Cc1cc2c(NN3C(=O)C=C(C)C3=O)nc(C(F)(F)F)nn2c1 | – | – | Activity [14]: Active; Activity [15]: Active; Activity [16]: Active; Activity [17]: Active
5.9 nM | < 10 min | > 139 µL/min/mg | COc1cccc2nc(-c3cccs3)nc(NN3C(=O)C=C(C)C3=O)c12 [AS-602868] | 30.2 nM | 5.1 | –
60.4 nM | 2.6 min | 528 µL/min/mg | CC1=CC(=O)N(Nc2nc(N(C)CC3CC3)nn3cccc23)C1=O | 329 nM | 5.4 | –
– | > 60 min | < 23 µL/min/mg | CC1=CC(=O)N(Nc2cc(C(F)(F)F)cc(C(F)(F)F)c2)C1=O | – | – | Activity [18]: Active; Compound Showed Stronger Effect Than Sp100030; Activity [19]: Active; Compound Showed Stronger Effect Than Sp100030; Activity [20]: Active; Activity [9]: Non-toxic; Activity [10]: Non-toxic; Drug uptake [21]: Active
12 nM | < 10 min | > 139 µL/min/mg | CC1=CC(=O)N(Nc2ccc(C(F)(F)F)c(C3CCCC3)n2)C1=O | 34 nM | 2.8 | –
222 nM | – | – | CC1=CC(=O)N(Nc2nc(N3CCCC(F)(F)C3)nn3cccc23)C1=O | 832 nM | 3.7 | –
1.5 nM | – | – | CC1=CC(=O)N(Nc2ccc(C(F)(F)F)c(Cl)c2)C1=O | 8.6 nM | 5.7 | –
34 nM | > 60 min | < 23 µL/min/mg | CC1=CC(=O)N(Nc2nc(N3CCCC3)nn3cccc23)C1=O | 240 nM | 7.1 | Activity [12]: inactive; inhibition [22]: Active; Activity [23]: inactive; Drug uptake [21]: Active
251 nM | – | – | CC1=CC(=O)N(Nc2nc(-c3ccnn3C)nn3cccc23)C1=O | 1320 nM | 5.3 | –
61.5 nM | – | – | CC1=CC(=O)N(N(C)c2nc(N3CCCCC3)nn3cccc23)C1=O | 386 nM | 6.3 | –
23 nM | < 10 min | > 139 µL/min/mg | CC1=CC(=O)N(Nc2ccc(C(F)(F)F)c(N3CC(F)(F)C3)n2)C1=O | 138 nM | 6 | –
60 nM | – | – | CC1=CC(=O)N(Nc2cc(N3CC(F)(F)C3)c(C(F)(F)F)cn2)C1=O | 770 nM | 12.8 | –
25 nM | – | – | CO[C@@H]1CCN(c2nc(NN3C(=O)C=C(C)C3=O)ccc2C(F)(F)F)C1 | 400 nM | 16 | –
4.7 nM | – | – | CC1=CC(=O)N(Nc2cc(C(F)(F)F)cc(N3CCCC3)n2)C1=O | 26 nM | 5.5 | –
95.7 nM | – | – | CC1=CC(=O)N(N(C)c2nc(N(C)C3CCCC3)nn3cccc23)C1=O | 418 nM | 4.4 | –
– | – | – | C#Cc1cc(NN2C(=O)C=C(C)C2=O)cc(C(F)(F)F)c1 | – | – | Activity [24]: Active; Activity [25]: Active; Activity [26]: Active; Activity [27]: Active
724 nM | – | – | CC1=CC(=O)N(Nc2ccc(C(F)(F)F)c(-c3ccnn3C)n2)C1=O | 1740 nM | 2.4 | –
